Results taken from patent US6268366A, “Amide derivatives of substituted quinoxaline 2,3-diones as glutamate receptor antagonists” (Warner-Lambert Company, priority 2000, dated 2001).

Key:
AMPA receptors = assay: AMPA receptor binding affinity (Honore et al.)
[1] = target: kainate site (non-NMDA receptor); assay: kainate site (non-NMDA receptor) binding affinity (London and Coyle)
[2] = target: T1, glycine (GLY) site of the NMDA receptor (Rattus norvegicus, UniProt P35439); assay: glycine (GLY) site of the NMDA receptor binding affinity (Jones et al.)
T1 construct: measured as described in Jones S. M., et al., Pharmacol. Methods, 1989;21:161; from tissue

CF-1 strain mice = assay: maximal electroshock (MES) assay in CF-1 strain mice, corneal electrodes; type: in vivo; settings: for Ataxic (%) / Protected (%): MES, mice IV; for duration of action in maximal electroshock time course compared with PNQX: mice, 30 mg/kg IV, versus standard PNQX, FIGS. 1 and 2
Method: Additionally, as a preliminary indicator of in vivo CNS activity related to anticonvulsant activity and potential neuroprotection, a maximal electroshock assay in CF-1 strain mice (20-25 g) was performed with corneal electrodes by conventional methods as described previously (Krall, et al., Epilepsia, 1988;19:409-428).
FIGS. […] The graph is the percent of mice protected versus the time in minutes.

## Cc1c([N+](=O)[O-])cc2[nH]c(=O)c(=O)[nH]c2c1CN(C)C(=O)c1ccc(Cl)cc1 [Compound 7, 4-Chloro-N-methyl-N-(6-Methyl-7-nitro-2,3-dioxo-1,2,3,4-tetrahydro-quinoxalin-5-ylmethyl)-benzamide]
AMPA receptors
  IC50: 980 nM
[1]
  IC50 KA: 1980 nM
[2]
  IC50: 40 nM

## Cc1c([N+](=O)[O-])cc2[nH]c(=O)c(=O)[nH]c2c1CN(C)C(=O)c1ccccc1 [Compound 6, N-methyl-N-(6-methyl-7-nitro-2,3-dioxo-1,2,3,4-tetrahydro-quinoxalin-5-ylmethyl)-benzamide]
AMPA receptors
  IC50: 1220 nM
[1]
  IC50 KA: 2770 nM
[2]
  IC50: 30 nM

## CC(=O)N(C)Cc1c(C)c([N+](=O)[O-])cc2[nH]c(=O)c(=O)[nH]c12 [Compound 1, N-Methyl-N-(6-methyl-7-nitro-2,3-dioxo-1,2,3,4-tetrahydro-quinoxalin-5-ylmethyl)-acetamide]
AMPA receptors
  IC50: 350 nM
[1]
  IC50 KA: 1660 nM
[2]
  IC50: 30 nM

## Cc1c([N+](=O)[O-])cc2[nH]c(=O)c(=O)[nH]c2c1CN(C)C(=O)c1ccc([N+](=O)[O-])cc1 [Compound 10, N-Methyl-N-(6-Methyl-7-nitro-2,3-dioxo-1,2,3,4-tetrahydro-quinoxalin-5-ylmethyl)-4-nitro-benzamide]
AMPA receptors
  IC50: 1120 nM
[1]
  IC50 KA: 950 nM

## Cc1c([N+](=O)[O-])cc2[nH]c(=O)c(=O)[nH]c2c1CN(C)C(=O)Cc1ccccc1 [Compound 5, N-methyl-N-(6-methyl-7-nitro-2,3-dioxo-1,2,3,4-tetrahydro-quinoxalin-5-ylmethyl)-2-phenyl-acetamide]
AMPA receptors
  IC50: 350 nM
[1]
  IC50 KA: 590 nM
[2]
  IC50: 20 nM

## Cc1c([N+](=O)[O-])cc2[nH]c(=O)c(=O)[nH]c2c1CN(C)C(=O)c1cccs1 [Compound 11, Thiophene-2-carboxylic acid-methyl-(6-methyl-7-nitro-2,3-dioxo-1,2,3,4-tetrahydro-quinoxalin-5-ylmethyl)-amide]
AMPA receptors
  IC50: 460 nM
[1]
  IC50 KA: 1230 nM
[2]
  IC50: 8 nM
CF-1 strain mice; 5 min, 10 mg/kg
  Ataxic (%): 0%
  Protected (%): 0%
CF-1 strain mice; 5 min, 30 mg/kg
  Ataxic (%): 40%
  Protected (%): 40%
CF-1 strain mice; 15 min, 10 mg/kg
  Ataxic (%): 0%
  Protected (%): 40%
CF-1 strain mice; 15 min, 30 mg/kg
  Ataxic (%): 60%
  Protected (%): 80%
CF-1 strain mice; 30 min, 10 mg/kg
  Ataxic (%): 0%
  Protected (%): 40%
CF-1 strain mice; 30 min, 30 mg/kg
  Ataxic (%): 20%
  Protected (%): 40%
CF-1 strain mice; 60 min, 10 mg/kg
  Ataxic (%): 0%
  Protected (%): 0%
CF-1 strain mice; 60 min, 30 mg/kg
  Ataxic (%): 20%
  Protected (%): 40%
CF-1 strain mice
  duration of action in maximal electroshock time course compared with PNQX: extended duration of action

## CCOC(=O)N(C)Cc1c(C)c([N+](=O)[O-])cc2[nH]c(=O)c(=O)[nH]c12 [Compound 15, Methyl-(6-methyl-7-nitro-2,3-dioxo-1,2,3,4-tetrahydro-quinoxalin-5-ylmethyl)-carbamic acid ethyl ester]
AMPA receptors
  IC50: 210 nM
[1]
  IC50 KA: 290 nM
[2]
  IC50: 100 nM
CF-1 strain mice; 10 min, 3 mg/kg
  Ataxic (%): 0%
  Protected (%): 0%
CF-1 strain mice; 10 min, 10 mg/kg
  Ataxic (%): 0%
  Protected (%): 40%
CF-1 strain mice; 30 min, 3 mg/kg
  Ataxic (%): 0%
  Protected (%): 0%
CF-1 strain mice; 30 min, 10 mg/kg
  Ataxic (%): 0%
  Protected (%): 60%

## COc1ccc(C(=O)N(C)Cc2c(C)c([N+](=O)[O-])cc3[nH]c(=O)c(=O)[nH]c23)cc1 [Compound 14, 4-Methoxy-N-methyl-N-(6-methyl-7-nitro-2,3-dioxo-1,2,3,4-tetrahydro-quinoxalin-5-ylmethyl)-benzamide]
AMPA receptors
  IC50: 520 nM
[1]
  IC50 KA: 850 nM
[2]
  IC50: 5 nM

## Cc1c([N+](=O)[O-])cc2[nH]c(=O)c(=O)[nH]c2c1CN(C)C(=O)CC1CCCCC1 [Compound 4, 2-Cyclohexyl-N-methyl-N-(6-methyl-7-nitro-2,3-dioxo-1,2,3,4-tetrahydro-quinoxalin-5-ylmethyl)-acetamide]
AMPA receptors
  IC50: 2050 nM
[1]
  IC50 KA: 2970 nM
[2]
  IC50: 200 nM

## Cc1c([N+](=O)[O-])cc2[nH]c(=O)c(=O)[nH]c2c1CN(C)C(=O)C1CCCCC1 [Compound 3, Cyclohexanecarboxylic acid-methyl-(6-methyl-7-nitro-2,3-dioxo-1,2,3,4-tetrahydro-quinoxalin-5-ylmethyl)amide]
AMPA receptors
  IC50: 910 nM
[1]
  IC50 KA: 3210 nM
[2]
  IC50: 300 nM

## Cc1c([N+](=O)[O-])cc2[nH]c(=O)c(=O)[nH]c2c1CN(C)C(=O)c1ccc(Cl)c(Cl)c1 [Compound 9, 3,4-Dichloro-N-methyl-N-(6-methyl-7-nitro-2,3-dioxo-1,2,3,4-tetrahydro-quinoxalin-5-ylmethyl)-benzamide]
AMPA receptors
  IC50: 1690 nM
[1]
  IC50 KA: 3450 nM

## Cc1c([N+](=O)[O-])cc2[nH]c(=O)c(=O)[nH]c2c1CN(C)C(=O)c1cc2ccccc2s1 [Compound 13, Benzo[b]thiophene-2-carboxylic acid methyl-(6-methyl-7-nitro-2,3-dioxo-1,2,3,4-tetrahydro-quinoxalin-5-ylmethyl)-amide]
AMPA receptors
  IC50: 620 nM
[1]
  IC50 KA: 5980 nM
[2]
  IC50: 40 nM

## Cc1c([N+](=O)[O-])cc2[nH]c(=O)c(=O)[nH]c2c1CN(C)C(=O)c1ccco1 [Compound 12, Furan-2-carboxylic acid methyl-(6-methyl-7-nitro-2,3-dioxo-1,2,3,4-tetrahydro-quinoxalin-5-ylmethyl)-amide]
AMPA receptors
  IC50: 380 nM
[1]
  IC50 KA: 1210 nM
[2]
  IC50: 6 nM
CF-1 strain mice; 3 min, 30 mg/kg
  Ataxic (%): 40%
  Protected (%): 40%
CF-1 strain mice; 15 min, 10 mg/kg
  Ataxic (%): 0%
  Protected (%): 40%
CF-1 strain mice; 15 min, 30 mg/kg
  Ataxic (%): 60%
  Protected (%): 80%
CF-1 strain mice; 30 min, 10 mg/kg
  Protected (%): 40%
CF-1 strain mice; 30 min, 30 mg/kg
  Ataxic (%): 20%
  Protected (%): 40%
CF-1 strain mice; 60 min, 30 mg/kg
  Ataxic (%): 20%
  Protected (%): 40%
CF-1 strain mice
  duration of action in maximal electroshock time course compared with PNQX: extended duration of action

## Cc1c([N+](=O)[O-])cc2[nH]c(=O)c(=O)[nH]c2c1CN(C)C(=O)c1ccc(C(F)(F)F)cc1 [Compound 8, N-Methyl-N-(6-Methyl-7-nitro-2,3-dioxo-1,2,3,4-tetrahydro-quinoxalin-5-ylmethyl)-4-trifluoromethyl-benzamide]
AMPA receptors
  IC50: 1920 nM
[1]
  IC50 KA: 3700 nM
